The record followed here is patent US4316894A, “Antibiotic SF-1130-x3 3 substance and production and use thereof” (Meiji Seika Kaisha, Ltd., priority 1979, dated 1982).

The structures appear in SMILES notation.

Experiment [1] can be described thus: Suppression of elevation of blood sugar level in mice given starch or sucrose orally. The format is in vivo, ICR-strain male mice. To be noted: test drug 10 mg/kg oral (dose of the x1 + x2 mixture not stated), 30 minutes after administration, ICR male mice, six per group. The protocol: The test was carried out by the following procedure: Test animal was ICR-strain male mice (six mice per group, weighing 25 g in average) which had been abstained from water for 20 hours. 1 g/kg of starch or 2.5 g/kg of sucrose was orally given to the mice. At the same time, 10 mg/kg of the compound of this invention or 10 mg/kg of deoxynojirimycin as a comparative drug was orally administered to these mice. 30 minutes after the administration, the glucose level in blood was measured.

The target in the next experiment is α-glucosidase. Briefly: Determination of the activity of inhibiting α-glucosidase. To be noted: measured in the same way as above; read-out: ID50 values (comparison substances, measured in the same way as above). It is filed as biochemical, pig. An excerpt:
The compound of this invention is useful for highly inhibiting the enzymatic reaction of glucosidase and particularly for inhibiting the enzymatic reaction of α-glucosidase as well as the enzymatic reaction of saccharase. Such the inhibitory activity of the compound of this invention may be estimated according to the following procedure with the α-glucosidase prepared from ileum mucosa of pig as disclosed in the literature "Acta Chem. Scand." vol. 12, page 1997 (1958).
(1) Determination of the activity of inhibiting α-glucosidase. There are prepared the following four solutions:
Solution A: A solution of the enzyme (α-glucosidase) having appropriately been diluted to a desired enzyme concentration with 0.1 M maleate buffered solution (pH 6.0)
Solution B: 0.1 M maleate buffered solution (pH 6.0)
Solution C: An aqueous solution of 0.014 M p-nitrophenyl-α-D-glycoside (as the substrate) in water
Solution D: An aqueous solution of 0.1 M sodium carbonate in water […]
In the above assay, degree (%) of inhibition for the inhibitor sample to the α-glucosidase is calculated according to the following equation: […]

As for `OC[C@H]1NC[C@H](O)[C@@H](O)[C@@H]1O` [Deoxynojirimycin], the “Blood sugar level, groups receiving starch” value in experiment [1] (starch 1 g/kg oral) is 101 ± 22.9 mg/dL. Besides, in experiment [1] (sucrose 2.5 g/kg oral), the “Blood sugar level, groups receiving sucrose” value is 93 ± 15.4 mg/dL.

For `OC[C@H]1NC(O)[C@H](O)[C@@H](O)[C@@H]1O` (stereo partly drawn) [nojirimycin], the IC50 at α-glucosidase was 360 µM.
